Earlier results as cited in patent US12365919B2, “Serum-free suspension system for lentiviral production” (priority 2016, dated 2025).

Tested on: lentiviral vector production
Conditions: serum-based culture system; worked only ~50% as well as caffeine

## CCCC(=O)[O-].[Na+] [sodium butyrate]
  lentiviral vector production enhancement, relative to caffeine: ~50%
